From BindingDB's records for patent US20240190875 (Changchun Genescience Pharmaceutical Co., 2024)

Molecular target: Growth hormone secretagogue receptor type 1 (Homo sapiens, UniProt Q92847)
Test: Determination of Human GHSR Agonist Activity
From the text: This method was used to determine the agonism effect of the compound of the invention on the activity of human GHSR protein expressed in human GHSR/CHO stable cell line.

Chain of Growth hormone secretagogue receptor type 1 (Q92847 whole entry): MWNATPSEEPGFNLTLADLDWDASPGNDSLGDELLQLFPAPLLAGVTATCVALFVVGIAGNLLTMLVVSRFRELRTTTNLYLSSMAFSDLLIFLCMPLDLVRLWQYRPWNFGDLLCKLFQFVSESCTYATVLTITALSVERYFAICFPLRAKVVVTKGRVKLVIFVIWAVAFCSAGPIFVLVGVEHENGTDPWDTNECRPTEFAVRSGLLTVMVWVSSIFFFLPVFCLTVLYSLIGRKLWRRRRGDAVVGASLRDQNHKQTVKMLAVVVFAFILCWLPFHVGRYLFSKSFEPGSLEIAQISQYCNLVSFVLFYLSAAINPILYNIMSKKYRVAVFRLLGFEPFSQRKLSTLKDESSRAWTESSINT

EC50 [nM]	Structure (SMILES)
24.5	Cc1oc(=O)oc1COC(=O)NC(C)(C)C(=O)N[C@H](COCc1ccccc1)C(=O)N1CCC2(CC1)CN(S(C)(=O)=O)c1ccccc12 [US20240190875, Example 17]
15.1	C[n+]1cccc(C(=O)NC(C)(C)C(=O)N[C@H](COCc2ccccc2)C(=O)N2CCC3(CC2)CN(S(C)(=O)=O)c2ccccc23)c1 [US20240190875, Example 18]
24.3	CC(=O)/C=C(/C)NC(C)(C)C(=O)N[C@H](COCc1ccccc1)C(=O)N1CCC2(CC1)CN(S(C)(=O)=O)c1ccccc12 [US20240190875, Example 19]

Further lines, the compound ahead of its results:

Structure (SMILES)	EC50 [nM]
CC(C)(NC(=O)[C@@H](N)CCC(N)=O)C(=O)N[C@H](COCc1ccccc1)C(=O)N1CCC2(CC1)CN(S(C)(=O)=O)c1ccccc12 [US20240190875, Example 1]	15.6
CC(C)C(=O)OCOC(=O)NC(C)(C)C(=O)N[C@H](COCc1ccccc1)C(=O)N1CCC2(CC1)CN(S(C)(=O)=O)c1ccccc12 [US20240190875, Example 15]	4.3
CC(C)(NC(=O)CN)C(=O)N[C@H](COCc1ccccc1)C(=O)N1CCC2(CC1)CN(S(C)(=O)=O)c1ccccc12 [US20240190875, Example 16]	9.8
CC(C)(C)C(=O)OCOC(=O)NC(C)(C)C(=O)N[C@H](COCc1ccccc1)C(=O)N1CCC2(CC1)CN(S(C)(=O)=O)c1ccccc12 [US20240190875, Example 21]	18.3
CC(=O)OCOC(=O)NC(C)(C)C(=O)N[C@H](COCc1ccccc1)C(=O)N1CCC2(CC1)CN(S(C)(=O)=O)c1ccccc12 [US20240190875, Example 22]	9.3
